# Measurements reported in patent publication US20150038333A1, “PLANT PROTECTIVE COMPOSITION CONTAINING ALPHA-HYDROXY ACIDS” (HELMHOLTZ ZENTRUM MÜNCHEN DEUTSCHES FORSCHUNGSZENT -RUN FÜR …, priority 2011, published 2015).
# Legend:
# UGT76B1 = target: T1, UGT76B1 (Arabidopsis thaliana, UniProt Q9C768); test: In vitro glucosyltransferase activity assay of recombinant UGT76B1; assay type: biochemical; details: 0.5 mM aglycone, 5 mM UDP-glucose, 1 hour at 30° C., analyzed by mass spectrometry
# T1 construct: The UGT76B1 open reading frame was amplified with the same primers as used for the construction of the overexpression lines; made in house
# T1 sequence (Q9C768 1-447): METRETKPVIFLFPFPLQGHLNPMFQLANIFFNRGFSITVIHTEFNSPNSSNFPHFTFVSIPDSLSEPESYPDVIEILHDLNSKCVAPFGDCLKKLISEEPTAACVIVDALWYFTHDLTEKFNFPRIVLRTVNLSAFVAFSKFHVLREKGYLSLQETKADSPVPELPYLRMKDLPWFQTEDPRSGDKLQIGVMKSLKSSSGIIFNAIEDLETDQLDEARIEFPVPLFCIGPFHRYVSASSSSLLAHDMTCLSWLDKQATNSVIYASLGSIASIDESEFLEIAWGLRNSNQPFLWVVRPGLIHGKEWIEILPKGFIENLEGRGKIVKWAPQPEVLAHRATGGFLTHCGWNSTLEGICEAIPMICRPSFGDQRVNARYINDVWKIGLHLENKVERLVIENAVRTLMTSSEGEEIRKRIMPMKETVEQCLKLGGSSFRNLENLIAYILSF
# Description: A glutathione-S-transferase (GST)-UGT761 expression plasmid was constructed using pDEST15 (Invitrogen, Germany). The UGT76B1 open reading frame was amplified with the same primers as used for the construction of the overexpression lines. The recombinant protein was affinity-purified using a glutathione-coupled sepharose beads according to the manufacturer's instructions (GE Healthcare, Germany), concentrated by membrane filtration (Amicon Ultra-4; Millipore, Germany) and supplemented with 20% glycerol for storage at −20° C. (Messner et al., 2003). To analyze the UGT enzyme activity assay mixtures contained 0.1 M Tris-HCl (pH 7.5), 5 mM UDP-glucose, 0.5 mM aglycone and about 1 μg fusion protein in a final volume of 50 μL. After incubation for 1 hour at 30° C. the reaction was stopped by addition of 200 μL methanol and cleared by centrifugation. Reactions were diluted 1:50 in 70% methanol (except for valic acid, which was used without dilution) and analyzed on a API4000 mass spectrometer using direct injection into the electrospray source at a flow rate of […]. 150 Scans were accumulated for each measurement in dual ion monitoring mode, which was adjusted to monitor ions at nominal m/z ratios of the corresponding expected substrate and product peaks with a mass range of ±5 Da.
# [1] = system: defence marker genes PR1, PDF1.2 and VSP2; test: Defense marker gene expression in Col-0 plants after spraying with α-hydroxy-acid (RTqPCR); assay type: in vivo, Arabidopsis; details: for expression of defense marker genes (PR1 and PDF1.2): 4-week-old Col-0 plants, 24 h after treatment, 1 mM in water, preliminary, two biological replicates
# Experimental: Rosette leaves of the indicated age were collected. Total RNA was isolated using the RNeasy Plant Mini Kit (Qiagen, Germany). RNA integrity and amount was analyzed by gel electrophoresis and by spectrophotometry. One microgram of total RNA was reverse transcribed using a SuperScript II reverse transcription-PCR kit (Invitrogen; Germany) according to the manufacturer's instructions. Gene-specific primer pairs were designed using the Primer Express 3.0 software. […] Real time quantification was performed using a 7500 real time PCR system (Applied Biosystems, Germany). Individual PCR reaction mixtures contained 4 μL of diluted cDNA, 10 μL of Sybr Green Mastermix (Thermo Scientific, Germany) and […] of each primer in a final volume of 20 μL. In all experiments, three biological replicates of each sample and two technical (PCR) replicates were performed. The amount of target gene was normalized over the abundance of the constitutive UBQ5 (At3g62250) and S16 (At5g18380, At2g09990) genes. The stability of the reference genes was tested and normalization was performed using GeNorm (Vandesompele et al., 2002). For RTqPCR of infected material, plants were infected as described below. Three biological replicates were analyzed; each consisted of six individually infected leaves. Plant material was harvested before infection and mock treatments (time point 0) and at the indicated time points after treatment. Each experiment was repeated with similar results.
# For isoleucic acid treatment, 4-week-old plants were sprayed with 0.5 or 1 mM isoleucic acid (diluted in water) or only water for mock treatments. Plants were covered with a plexiglass lid until the surface of the leaves became dry. The fifth to eighth true leaves of each plant were harvested 24 hours after treatment. Four leaves from three independent plants were pooled for each replicate and analyzed by real-time PCR.
# [2] = system: pathogen responsive genes PR1 and PR10; test: Induction of defence genes in barley leaves (semiquantitative PCR); assay type: in vivo, Hordeum vulgare; details: 2-week-old plants sprayed with 1 mM ILA, 48 h after treatment
# Experimental: Total RNA was isolated using the RNeasy Plant Mini Kit (Qiagen, Germany). RNA integrity and amount was analyzed by gel electrophoresis and by spectrophotometry. One microgram of total RNA was reverse transcribed using a QuantiTect reverse transcription-PCR kit (Qiagen; Germany) according to the manufacturer's instructions. The following gene-specific primer pairs were kindly provided by Corina Vlot: EF1A_Hv_f (5′-[…]-3′) and EF1A_Hv_r (5′-[…]-3′) for the barley reference gene EF1A; PR1_Hv_f (5′-[…]-3′) and PR1_Hv_r (5′-[…]-3′) for barley PR1; Hv, PR10_Hv_f (5′-[…]-3′) and PR10_Hv_r (5′-[…]-3′) for barley PR10. PCR fragments were amplified using the indicated number of PCR cycles (FIG. 17) and separated on a 2% agarose gel containing ethidium bromide.
# For ILA treatment in barley, 2-week-old plants were sprayed with either 1 mM ILA or 0.25 mg/ml BTH (benzothiadiazole/BION™), dissolved in water with 0.01% tween. For mock treatment, plants were sprayed only with water containing 0.01% tween. Leaves were harvested 48 hours after treatment and analyzed by semiquantitative PCR.
# [3] = system: P. syringae pv. tomato DC3000 (avrRpm1) (Ps-avir); test: Bacterial growth in Arabidopsis leaves of wild-type plants sprayed with ILA before infection; assay type: in vivo, Pseudomonas syringae
# Experimental: FIG. 14: Direct effect of exogenously applied ILA on pathogen defence. Bacterial growth in Arabidopsis leaves of wild-type plants sprayed with water (blank) or 1 mM ILA (dotted) 24 h or 72 h before infection. Plants were inoculated with 5*10^5 cfu ml^−1 of Ps-avir and bacteria (cfu cm^−2) were quantified 0 and 3 days after inoculation. The graphs represent the means and standard deviations of three replicates.
# Bacterial strains used in this study include Pseudomonas syringae pv. tomato DC3000 (Ps), P. syringae pv. tomato DC3000 (avrRpm1) (Ps-avir). Bacteria were grown overnight at 28° C. in King's B medium with appropriate antibiotics and diluted to 5*10^5 cfu mL^−1 with 10 mM MgCl2 for plant inoculation. Whole leaves of 5- to 6-week-old plants were infiltrated using a 1-mL syringe without a needle. Control plants were infiltrated with 10 mM MgCl2. Leaf discs from control treated and infected plants were harvested from inoculated leaves at 0, 1 and 3 d after infiltration. Bacterial growth was assessed as described previously (Katagiri et al., 2002). For each time point, three samples were made by pooling six leaf discs from three different treated plants.
# [4] = leaves of four-week-old Col-0 plants, 24 h after spraying isoleucic acid solution
compound,measurement,setting,value
CCC(O)(CC)C(=O)O [2-ethyl-2-hydroxybutyric acid],glucosylation by recombinant UGT76B1,UGT76B1,no activity
CCCCCCC(O)C(=O)O (stereo not drawn) [2-hydroxy-octanoic acid],expression of defense marker genes (PR1 and PDF1.2),[1],can also induce
"CCC(C)C(O)C(=O)O (stereo not drawn) [isoleucic acid, 2-hydroxy-3-methylpentanoic acid]",PR1 transcript level in barley,[2],induces
same,PR10 transcript level in barley,[2],induces
same,glucosylation by recombinant UGT76B1,UGT76B1,glucosylated
same,persistence of increased resistance after ILA spraying,[3]; 1 mM ILA sprayed 24 h or 72 h before Ps-avir infection,1 to 3 days
same,bacterial growth compared with mock treatment,"[3]; 1 mM ILA sprayed 24 h or 72 h before infection with 5*10^5 cfu ml^-1 Ps-avir, bacteria quantified 3 days after inoculation",about four- to fivefold less bacterial growth
same,PDF1.2 expression relative to mock (water) treatment,[1]; [4],tendency for induction
same,VSP2 expression relative to mock (water) treatment,[1]; [4],only marginally suppressed
same,PR1 expression relative to mock (water) treatment,"[1]; leaves of four-week-old Col-0 plants, 24 h after spraying isoleucic acid solution (0.5 or 1 mM)",more than tenfold induced
"CC(C)[C@H](O)C(=O)O [valic acid, (S)-(+)-2-hydroxy-3-methylbutyric acid]",glucosylation by recombinant UGT76B1,UGT76B1,able to glucosylate
same,expression of defense marker genes (PR1 and PDF1.2),[1],can also induce
